Laboratory results: patent US20220370604A1, “PEPTIDE VACCINE FOR VIRUS INFECTION” (Vacino Biotech Co., Ltd., priority 2021, published 2022)
Ends that are not written are not given here.

Key:
[1] = molecular target: HLA-A201 (Homo sapiens, UniProt P04439, D140Y/D185E/D98H/E176V/E277Q/G131W/G231S/I119V/I121R/I166T/I218V/N151K/N90K/P208A/P217A/Q86G/Q94H/R138H/R169H); experiment: MHC-peptide binding assay (MHC class I refolding assay, easYmer)
Method: Different concentrations of peptides were incubated with β2-microglobulin light chain subunit and biotin-labeled recombinant HLA-A201 to form peptide-HLA complexes. The peptide-HLA complexes were then captured by streptavidin-coated beads and detected by anti-human β2-microglobulin antibody on flow cytometry. Each data point represents the mean fluorescence intensity corresponding to the number of the formed peptide-HLA complex, and the error bars represent standard deviation (n=2).
Each bar represents the mean fluorescence intensity corresponding to the number of the formed peptide-HLA complex, and the error bars represent standard deviation (n=2).
MHC-peptide binding assay. […] MHC class I refolding assay (easYmer, immunAware Aps, Copenhagen, Denmark) was preformed according to manufacturer's instruction. […] The biotin-labeled peptide-HLA complex was then captured by streptavidin-coated beads and detected by PE-conjugated anti-human β2-microglobulin on flow cytometry. […] No peptide was used in the negative control.

[2] = tested on: Human SARS-CoV-2 Spike (trimer); experiment: Immunization of mice, anti-spike IgG ELISA; assay type: in vivo; conditions: Day 41 vs Day -1, BALB/c mice
[3] = tested on: CD4^+ T cells in human PBMCs (HLA-A201^+); experiment: Intracellular cytokine staining and multiparameter flow cytometry; assay type: cell-based; conditions: Day 12
Method: Human PBMCs were treated with Peptide 1 (SEQ ID NO: 1) at the concentrations of 0.4, 2, 10, 50, 250 nM for 12 days and then subject to intracellular cytokine staining and multiparameter flow cytometry.
Human PBMCs were treated with Peptide 12 (SEQ ID NO: 12) at the concentrations of 0.4, 2, 10, 50, 250 nM for 12 days and then subject to intracellular cytokine staining and multiparameter flow cytometry.
Intracellular cytokine staining and multiparameter flow cytometry. Around 1-2×10^5 human PBMCs (HLA-A201^+) ([…] Technologies Inc, Vancouver, British Columbia, Canada) were seeded onto 96-well microplate in X-VIVO 15 medium. […] The culture medium was refreshed every 5 days, and on the 12th day after treatment with the peptides, the cells were collected and stained with anti-CD4-PerCP-Cy5.5 conjugated, IFN-γ-FITC chrome conjugated, and IL4-PE chrome conjugated antibodies according to the manufacturer's instruction. After that, the cells were washed twice in cold FACS buffer, resuspended in FACS buffer, and analyzed in a flow cytometer ((BD LSRFortessa™X20, Franklin Lakes, N.J., U.S.).

[4] = tested on: CD8^+ T cells in human PBMCs (HLA-A201^+); experiment: MHC class I tetramer assay; assay type: cell-based; conditions: human PBMC (HLA-A201^+), 30 nM tetramer, 20 minutes; FIG. 3
Method: Human PBMCs were treated with MHC class I tetramers binding with Peptide 1 (SEQ ID NO: 1) or Peptide 12 (SEQ ID NO: 12) for 20 minutes, co-stained with anti-CD8 antibodies, and then analyzed with a flow cytometer. Results are presented as mean with error bars representing standard error (n=3). *p<0.05.
MHC class I tetramer assay. […] Then, 50 µL of the obtained folded monomer were mixed with the equivalent of 2.1 μL of a 0.2 mg/mL streptavidin-fluorophore and incubated in the dark at 4° C. for at least 1 hour to tetramerized the monomer. The tetramer was diluted to 30 nM in FACS buffer (PBS with 1% v/v BSA and 0.1% v/v NaN3) for staining of human T cells.
Next, around 1-2×10^5 human peripheral blood mononuclear cells (PBMCs, HLA-A201^+) ([…] Technologies Inc, Vancouver, British Columbia, Canada) in FACS buffer were seeded onto a 96-well microplate. The cells were centrifuged at 700×g for 3 minutes, and the supernatant was removed. The cells were resuspended with 40 μL of the diluted tetramer and incubated in the dark at room temperature (RT) for 20 minutes. The cells were washed once in cold FACS buffer and centrifuged at 700×g for 3 minutes. […] The cells were washed twice in cold FACS buffer, resuspended in FACS buffer, and analyzed in a flow cytometer (BD LSRFortessa™X20, Franklin Lakes, N.J., U.S.).

[5] = Immunization of mice, total IgG ELISA; assay type: in vivo, BALB/c mice; conditions: for total IgG antibodies: BALB/c mice, ***p<0.001
Method: Immunization of mice. To determine the immunogenicity of the antigen peptides of the present invention, Peptide 1 (SEQ ID NO: 1) of the present invention were used as an example for mice model. Ten (10) female BALB/c mice (7-9 weeks old) supplied by Envigo (Indianapolis, Ind., USA) were intramuscularly injected with 3 shots of 45 μg Peptide 1 (SEQ ID NO: 1) at 2 weeks apart (on Days 0, 14, and 28). Serum was collected before the day of each immunization (on Days−1, 13, and 27). Terminal blood collection was performed on Day 41. Isolated serum was stored at −80° C. until serological analysis. Serum samples collected one day prior to the first injection (on Day−1, pre-dose group) and serum samples collected 2 weeks after the third injection (on Day 41, post-dose group) were used for anti-spike IgG ELISA assay.
Total IgG ELISA. IgG (Total) Mouse Uncoated ELISA kit (Cat. No. 88-50400, Thermo Fisher Scientific, MA, USA) was used for total IgG ELISA according to manufacturer's instruction. Briefly, Nunc™ MaxiSorp™ 9018 ELISA plate was coated with 100 μL/well of capture antibody in Coating Buffer and incubated overnight at 4° C. The plate was washed twice with 400 μL/well Wash Buffer. After the wells were blocked with 250 μL of Blocking Buffer and incubated at room temperature for 2 hours, the plate was washed twice. The standards were serially diluted with Assay Buffer A at 2-fold to make the standard curve. Then, 100 μL/well of Assay Buffer A were added to the blank wells, and 90 μL/well of Assay Buffer A were added to the sample wells. Serum samples were diluted at least 10,000-fold in Assay Buffer A, and then 10 μL/well of the prediluted serum samples were added to the appropriate wells. Fifty (50) μL/well of diluted Detection Antibody were added to all wells. Then, the plate was covered and incubated at room temperature for 2 hours, and washed four times after the incubation. […] After that, 100 μL of Stop Solution were added to each well, and the plate was read at OD 450 nm with a microplate reader. […]

Sequence | binding affinity for HLA-A201, times as high as that of CMVpp65495-503 (positive control) ([1]; 8.9 nM peptide, FIG. 1, mean fluorescence intensity of peptide-HLA complex) [times] | binding affinity for HLA-A201 compared with CMVpp65495-503 (positive control) ([1]; concentration of 3 nM and 8.9 nM, FIG. 1) | anti-spike IgG antibodies ([2]; intramuscular, 45 μg, FIG. 5B, ***p<0.001) | anti-spike IgG antibodies ([2]; oral, 200 μg formulated with 1% (v/v) PLCL-PEG-PLCL, FIG. 7B, **p<0.01) | IL-4 secretion by T helper cells (CD4^+ cells) ([3]; 50 nM peptide) | IFN-γ secretion by T helper cells (CD4^+ cells) ([3]; 250 nM peptide) | antigen specific cytotoxic T cells (CTLs) detected by MHC class I tetramer staining [4] | total IgG antibodies ([5]; intramuscular, 45 μg, Days 0, 14, 28, FIG. 5A) | total IgG, course over administrations ([5]; intramuscular, 45 μg, sera on Days -1, 13, 27, 41, FIG. 5A) | total IgG antibodies ([5]; oral, 200 μg formulated with 1% (v/v) PLCL-PEG-PLCL, Day 41 vs Day -1, FIG. 7A)
KLNSGDSKV [Peptide 1] | 1.8 | higher binding affinity for HLA-A201 than CMVpp65495-503 | induced anti-spike IgG antibodies | induced anti-spike IgG antibodies | higher level | higher level | can be detected | induced total IgG antibodies | reaches to the plateau after second administration | induced total IgG antibodies
KLNSGLSKV [Peptide 12] | – | – | – | – | – | – | can be detected | – | – | –
